The term IC50 denotes the point on the concentration scale where inhibition reaches its midpoint.

Assay [1] concerns the target T1, Estrogen receptor (Homo sapiens, UniProt Q92731+P03372). Briefly: Inhibition of 10e-9 M E2 stimulated MCF-7 breast cancer cell proliferation. The class given is functional, cell-based. To be noted: cancer cell lines.
For assay [2], the target named is T1, Estrogen receptor. Kind of assay: Inhibition of 10e-9 M E2 stimulated transcriptional activation in ER+MCF-7/2a breast cancer cells. Type of assay: functional, cell-based. Conditions: cancer cell lines.
Assay [3] deals with T1, Estrogen receptor. To be noted: Cancer cell lines, at 5 µM.
Description: Inhibition of ER-MDA-MB 231 breast cancer cell proliferation over 96 hr at 5 uM
Assay [4] concerns the target T1, Estrogen receptor. Kind of assay: Inhibition of ER+ MCF-7 breast cancer cell proliferation over 200 hr. To be noted: cancer cell lines.
Assay [5] concerns the target T1, Estrogen receptor. Conditions: Cancer cell lines, at 10 µM.
Description: Inhibition of ER-MDA-MB 231 breast cancer cell proliferation over 96 hr at 10 uM

As for `CC/C(=C(/CCCCCC(=O)N(C)CCCSCCCC(F)(F)C(F)(F)F)c1ccc(O)cc1)c1ccc(O)cc1`, the IC50 against Estrogen receptor [1] amounted to 700 nM; on Estrogen receptor [2], 310 nM.
The like results for `CCCCCSCCCN(C)C(=O)CCCCC/C(=C(/CC)c1ccc(O)cc1)c1ccc(O)cc1` were, in that order, 1900 nM and 600 nM.
As for `CC/C(=C(/CCCCCCN(C)CCCSCCCC(F)(F)C(F)(F)F)c1ccc(O)cc1)c1ccc(O)cc1`, the T/C on Estrogen receptor [3] and at Estrogen receptor [5] was -15% each time. For the same compound, the IC50 against Estrogen receptor [4] was 0.22 nM; against Estrogen receptor [1], 7 nM; on Estrogen receptor [2], 10 nM.
On to `CCCCCSCCCN(C)CCCCCC/C(=C(/CC)c1ccc(O)cc1)c1ccc(O)cc1`, for which the T/C was 75% on Estrogen receptor [3] and -25% at Estrogen receptor [5]. The values for the half-inhibitory concentration (IC50) on Estrogen receptor [4], against Estrogen receptor [1] and on Estrogen receptor [2] were 0.75 nM, 10 nM and 10 nM, respectively.
On to `CCCCCS(=O)(=O)CCCCCCCCCC/C(=C(/CC)c1ccc(O)cc1)c1cccc(O)c1`, for which the T/C on Estrogen receptor [3] is 96%; on Estrogen receptor [5], -7%. The values for the IC50 against Estrogen receptor [4], on Estrogen receptor [1] and against Estrogen receptor [2] were 49 nM, 270 nM and 370 nM, respectively.
On to `CCCCCS(=O)(=O)CCCCCCCCCCn1c(-c2ccc(O)cc2)c(C)c2cc(O)ccc21`, for which the figures for the T/C at Estrogen receptor [3] and on Estrogen receptor [5] were 84% and -2%, respectively. Also, the 50% inhibitory concentration (IC50) at Estrogen receptor [4] came out at 1.4 nM; against Estrogen receptor [1], 50 nM; on Estrogen receptor [2], 20 nM.
Consider `CCCCCS(=O)(=O)CCCCCCCCCC/C(=C(/CC)c1cccc(O)c1)c1ccc(O)cc1`, for which the T/C was determined as 90% on Estrogen receptor [3] and 32% on Estrogen receptor [5]. For the same compound, the results for the IC50 at Estrogen receptor [4], against Estrogen receptor [1] and against Estrogen receptor [2] were 6.1 nM, 110 nM and 50 nM, respectively.
Turning to `C[C@]12CC[C@@H]3c4ccc(O)cc4C[C@@H](CCCCCCCCC[S+]([O-])CCCC(F)(F)C(F)(F)F)[C@H]3[C@@H]1CC[C@@H]2O` (some centres not stated), the T/C turned out to be 93% on Estrogen receptor [3] and 95% at Estrogen receptor [5].
Regarding `CCCCCS(=O)(=O)CCCCCCCCCC/C(=C(/CC)c1ccc(O)cc1)c1ccc(O)cc1`, the T/C is 94% at Estrogen receptor [3] and -4% on Estrogen receptor [5]. Also, the IC50 on Estrogen receptor [4] worked out at 5.1 nM; on Estrogen receptor [1], 100 nM; against Estrogen receptor [2] it was 130 nM.
In the case of `CCCCCSCCCCCCCCCC/C(=C(/CC)c1cccc(O)c1)c1ccc(O)cc1`, the IC50 against Estrogen receptor [1] worked out at 590 nM; against Estrogen receptor [2], 200 nM.
Regarding `CCCCCSCCCCCCCCCC/C(=C(/CC)c1ccc(O)cc1)c1cccc(O)c1`, the IC50 at Estrogen receptor [1] was found to be 2100 nM; on Estrogen receptor [2] it was 1200 nM.
Taken in the same sequence, the figures for `CCCCCSCCCCCCCCCC/C(=C(/CC)c1ccc(O)cc1)c1ccc(O)cc1` were 1400 nM and 790 nM.

The values above are taken from ChEMBL document CHEMBL1137833, “Synthesis and biological evaluation of stilbene-based pure estrogen antagonists” (Bioorg Med Chem Lett, 2004).
